Assay results: patent publication US4370474A, “11-Deoxy-carminomycin compounds” (Farmitalia Carlo Erba S.p.A., priority 1978, dated 1983)
Where a name gives a salt, the structure may show the parent alone. Read-outs that look alike come from different tables or passages of the source.

Key:
HeLa cells = assay: Effect on HeLa cells viability in vitro; assay type: cell-based; conditions: Homo sapiens, read-out: Effect of HeLa cells viability in vitro ID50
Method: (§1) The new antibiotics W, Y and Z have been tested against HeLa cells in vitro (time of exposure to the drugs: 24 hours), and on L 1210 and P 388 leukemia in mice in comparison with daunorubicin.
(a) HeLa cells were exposed to the drugs for 24 hrs, then plated.

P 388 leukemia = assay: Antitumor activity on P 388 leukemia in mice; assay type: in vivo; conditions: for P-388 Toxic deaths: evaluated on macroscopic findings
Method: as §1
(§2) (b) Mice were treated i.p. on day 1 after tumor cell inoculation.
(§3) (c) Evaluated on the basis of macroscopic findings.

L 1210 leukemia = assay: Antitumor activity on L 1210 leukemia in mice; assay type: in vivo; conditions: for L-1210 Toxic deaths: evaluated on macroscopic findings
Method: as §1, §2, §3

Solubility = assay type: physicochemical; conditions: aglycone from acid hydrolysis
[1] = HeLa cells exposed to the drugs for 24 hrs, then plated
[2] = 1.0 mg/kg i.p. on day 1 after tumor cell inoculation
[3] = 1.2 mg/kg i.p. on day 1 after tumor cell inoculation
[4] = 1.9 mg/kg i.p. on day 1 after tumor cell inoculation
[5] = 2.9 mg/kg i.p. on day 1 after tumor cell inoculation
[6] = 4.4 mg/kg i.p. on day 1 after tumor cell inoculation
[7] = 6.6 mg/kg i.p. on day 1 after tumor cell inoculation

C[C@@H]1O[C@@H](O[C@H]2C[C@](O)(C(=O)CO)Cc3cc4c(c(O)c32)C(=O)c2c(O)cccc2C4=O)C[C@H](N)[C@@H]1O [Antibiotic W.HCl]
IC50 (HeLa cells; [1]): 8.8 ng/mL
P-388 Toxic deaths (P 388 leukemia; 1.0 mg/kg i.p. on day 1): 0/10
P-388 T/C (P 388 leukemia; [2]): 159%
P-388 Toxic deaths (P 388 leukemia; 1.5 mg/kg i.p. on day 1): 0/20
P-388 T/C (P 388 leukemia; 1.5 mg/kg i.p. on day 1 after tumor cell inoculation): 172%
P-388 Toxic deaths (P 388 leukemia; 2.25 mg/kg i.p. on day 1): 0/20
P-388 T/C (P 388 leukemia; 2.25 mg/kg i.p. on day 1 after tumor cell inoculation): 163%
P-388 Toxic deaths (P 388 leukemia; 3.4 mg/kg i.p. on day 1): 0/10
P-388 T/C (P 388 leukemia; 3.4 mg/kg i.p. on day 1 after tumor cell inoculation): 190%
P-388 Toxic deaths (P 388 leukemia; 5.0 mg/kg i.p. on day 1): 1/9
P-388 T/C (P 388 leukemia; 5.0 mg/kg i.p. on day 1 after tumor cell inoculation): 204%

CC(=O)[C@]1(O)Cc2cc3c(c(O)c2[C@@H](O[C@H]2C[C@H](N)[C@H](O)[C@H](C)O2)C1)C(=O)c1c(O)cccc1C3=O [Antibiotic Y.HCl]
IC50 (HeLa cells; [1]): 9.6 ng/mL
L-1210 T/C (L 1210 leukemia; 0.8 mg/kg i.p. on day 1 after tumor cell inoculation): 111%
L-1210 T/C (L 1210 leukemia; [3]): 128%
L-1210 T/C (L 1210 leukemia; [4]): 122%
L-1210 Toxic deaths (L 1210 leukemia; 2.9 mg/kg i.p. on day 1): 8/10
L-1210 T/C (L 1210 leukemia; [5]): 111%
P-388 T/C (P 388 leukemia; [3]): 145%
P-388 T/C (P 388 leukemia; [4]): 159%

CC[C@]1(O)Cc2cc3c(c(O)c2[C@@H](O[C@H]2C[C@H](N)[C@H](O)[C@H](C)O2)C1)C(=O)c1c(O)cccc1C3=O [Antibiotic Z.HCl]
IC50 (HeLa cells; [1]): 15 ng/mL
L-1210 T/C (L 1210 leukemia; [5]): 125%
L-1210 Toxic deaths (L 1210 leukemia; 4.4 mg/kg i.p. on day 1): 2/10
L-1210 T/C (L 1210 leukemia; [6]): 131%
L-1210 Toxic deaths (L 1210 leukemia; 6.6 mg/kg i.p. on day 1): 5/10
L-1210 T/C (L 1210 leukemia; [7]): 137%
P-388 T/C (P 388 leukemia; [2]): 140%
P-388 T/C (P 388 leukemia; 2.0 mg/kg i.p. on day 1 after tumor cell inoculation): 140%
P-388 Toxic deaths (P 388 leukemia; 4.4 mg/kg i.p. on day 1): 7/8
P-388 T/C (P 388 leukemia; [6]): 100%

COc1cccc2c1C(=O)c1c(O)c3c(c(O)c1C2=O)C[C@@](O)(C(C)=O)C[C@@H]3O[C@H]1C[C@H](N)[C@H](O)[C@H](C)O1 [Daunorubicin.HCl, daunorubicin, reference compound]
IC50 (HeLa cells; HeLa, 24 h): 7.5 ng/mL
L-1210 T/C (L 1210 leukemia; [5]): 144-150%
L-1210 Toxic deaths (L 1210 leukemia; 4.4 mg/kg i.p. on day 1): 1/20
L-1210 T/C (L 1210 leukemia; [6]): 140-162%
L-1210 Toxic deaths (L 1210 leukemia; 6.6 mg/kg i.p. on day 1): 3/19
L-1210 T/C (L 1210 leukemia; [7]): 144-162%
P-388 Toxic deaths (P 388 leukemia; 2.9 mg/kg i.p. on day 1): 2/8
P-388 T/C (P 388 leukemia; [5]): 170%
P-388 Toxic deaths (P 388 leukemia; 4.4 mg/kg i.p. on day 1): 6/8
P-388 T/C (P 388 leukemia; [6]): 175%
P-388 Toxic deaths (P 388 leukemia; 6.6 mg/kg i.p. on day 1): 7/8
P-388 T/C (P 388 leukemia; [7]): 160%

CC(=O)[C@]1(O)Cc2cc3c(c(O)c2[C@@H](O)C1)C(=O)c1c(O)cccc1C3=O [aglycone of the antibiotic Y]
solubility in water (Solubility): water insoluble
